Where two headings read alike, the source gives them in different places.
What was measured:
[1] = target: NMDA receptors; settings: −30 mV in the presence of physiological magnesium concentration; read-out: IC50 of memantine; cited from earlier work
[2] = system: native NMDA receptors of rat CA1 hippocampal pyramidal neurons; assay: Whole-cell patch-clamp of NMDA-induced currents in isolated CA1 pyramidal neurons; type: cell-based; settings: for washout of mixture with Mg2+ compared with compound alone: 10 mM Mg2+; for washout τ, compound alone (representative recording) / washout τ, compound + Mg (representative recording): Figure 5; for washout τ, compound + Mg (representative recording): with 10 mM Mg2+; for washout time constant τ, compound alone: proguanil 30 µM, magnesium 10 mM; for inhibition of NMDA receptor steady-state currents (in words): 10 µM; for agonist dependence of action: NMDA 30 µM vs 1 mM; for agonist dependence of action / voltage dependence of inhibition (in words): cycloguanil 5 µM, proguanil 10 µM, phenformin 20 µM; for Kd: fit of voltage dependence (+30 to −120 mV) with Equation (2); for δ (fraction of membrane electric field crossed): fit with Equation (2), * = fixed value; for voltage dependence of inhibition (in words): holding potential +30 to −120 mV; for competitive or not competitive inhibition: inhibition compared at 30 µM and 1000 µM NMDA; for % of Inhibition (10 µM) −80 mV: steady-state current, 10 µM compound; for % of trapping in double-pulse protocol / tail currents on coapplication with agonist: cycloguanil 100 µM; for Hill Coeff.: concentration–inhibition curve; for tail currents on coapplication with agonist: proguanil 100 µM, phenformin 300 µM
Description: NMDA receptors of these neurons consist mainly of GluN1, GluN2A and/or GluN2B subunits. We initially checked whether 10 µM concentrations of biguanide compounds metformin, phenformin, moroxydine, cycloguanil and proguanil would inhibit these steady-state currents. […] Hill coefficients were 1.0 ± 0.1, 1.1 ± 0.2 and 1.1 ± 0.1 for cycloguanil, proguanil and phenformin, respectively.
All experiments were conducted with approval by the Animal Care and Use Committee of the Sechenov Institute of Evolutionary Physiology and Biochemistry of the Russian Academy of Sciences (protocol 1-13/2023, 26 January 2023). Outbred male Wistar rats (13–18 days old, weighing 25–35 g) were sourced from the IEPHB facility. Maximum efforts were made to minimize the number of animals used and to reduce discomfort.
The rats were decapitated after sevoflurane anaesthetization. The brains were rapidly removed and cooled to 2–4 °C. Transverse hippocampal slices were prepared using a vibratome (Campden Instruments, Loughborough, UK), and single neurons were freed from slices by vibrodissociation. All experiments were performed at room temperature.
The whole-cell patch clamp technique was used to record membrane currents in response to applications of the agonists. Series resistance (<20 MΩ) was compensated by 70–80% and monitored during experiments. Currents were recorded using an EPC-8 amplifier (HEKA Electronics, Lambrecht, Germany), filtered at 5 kHz, sampled and stored on a personal computer. Drugs were applied using an RSC-200 (BioLogic, Seyssinet-Pariset, France) perfusion system under computer control. The extracellular solution contained (in mM) NaCl 143, KCl 5, CaCl2 2.5, D-glucose 18, and HEPES 10 (pH adjusted to 7.4 with […]). The pipette solution contained (in mM) CsF 100, CsCl 40, NaCl 5, CaCl2 0.5, EGTA 5, and HEPES 10 (pH adjusted to 7.2 with CsOH). Proguanil (HY-B0806), cycloguanil (HY-12784), phenformin hydrochloride (HY-16397A), metformin hydrochloride (HY-17471A), moroxydine hydrochloride (HY-B0420A) and ifenprodil tartrate (HY-12882A) were obtained from MedChemExpress (Monmouth Junction, NJ, USA). Other reagents were purchased from MedChemExpress (Monmouth Junction, NJ, USA), Sigma (St. Louis, MO, USA) or Tocris Bioscience (Bristol, UK).
Experiments were performed on pyramidal neurons from the CA1 area of the hippocampus. Unless otherwise specified, NMDA receptors were activated with 100 µM NMDA and 10 µM glycine. The percentage of steady-state current blockage by various drug concentrations was measured at holding voltages of either −80 or −30 mV. Transient processes lasting more than 20 ms were modeled using single or double exponential functions. In the case of double exponential fitting, the weighted time constant was employed.
The voltage dependence of the compounds’ action was analyzed using the classical Woodhull model with the voltage-independent component addition. According to the Woodhull model of an impermeable blocker, the voltage dependence of steady-state blockade is defined by Equation (1):(1) B=100/(1+Kb/C×exp〖Fzδ/RTV〗) where V is voltage; B is the level of the block (%); C is the concentration of the drug; z is the molecular charge; and R, F and T have their standard meanings. Kb is the affinity of a drug for the channel, and δ is the electrical depth of the binding site. The δ value reflects the fraction of membrane electric field that the charged blocking molecule crosses on its pathway between the external media and the binding site in the channel.
Our experimental data were not well fitted by the abovementioned equation, presumably because of the presence of a voltage-independent component. Thus, we used an Equation (2), taking it into account, assuming that the binding to the deep and superficial site is independent:(2) B=100−100/(1+C/(Kvd×exp〖Fzδ/RTV〗)+C/Kvi+(C×C)/(Kvd×exp〖Fzδ/RTV〗×Kvi)) […]

[3] = system: NMDA receptors; parameters: method as in PMID 12009768; settings: acute phenformin treatment, cited from earlier work
[4] = −80 mV, Cyclog 10 µM, Ifen 10 µM
[5] = −80 mV, Mg 10 mM, Prog 30 µM, Phen 50 µM
[6] = read-out: Kvd (affinity for the deep site in the channel pore)
[7] = read-out: Kvi (affinity for the superficial, voltage-independent site)
[8] = 100 µM NMDA + 10 µM glycine, −80 mV, no Mg2+
[9] = −30 mV holding voltage, 1 mM Mg2+, read-out: IC50 at −30 mV in the presence of 1 mM Mg2+
[10] = −30 mV holding voltage, no Mg2+, read-out: IC50 at −30 mV in the absence of Mg2+
[11] = −80 mV holding voltage, no Mg2+, 100 µM NMDA + 10 µM glycine, read-out: IC50, µM −80 mV

Row | IC50 [2, 9] [µM] | IC50 [2, 10] [µM] | IC50 [2, 11] [µM] | SMILES | washout of mixture with Mg2+ compared with compound alone ([2]; −80 mV) | washout τ, compound + Mg (representative recording) ([2]; −80 mV) [ms] | washout τ, compound alone (representative recording) [2, 5] [ms] | mechanism of NMDA receptor inhibition [2] | inhibition of NMDA receptor steady-state currents (in words) ([2]; −80 mV) | agonist dependence of action [2] | Kd [2, 6] [µM] | Kd [2, 7] [µM] | δ (fraction of membrane electric field crossed) [2] | voltage dependence of inhibition (in words) [2] | competitive or not competitive inhibition [2] | % of Inhibition (10 µM) −80 mV [2, 8] | effect of 1 mM Mg2+ on activity at −30 mV ([2]; −30 mV holding voltage) | overshoots on washout in the presence of agonists ([2]; −80 mV) | % of trapping in double-pulse protocol ([2]; −80 mV holding voltage) [%] | Hill Coeff. ([2]; −80 mV) | tail currents on coapplication with agonist ([2]; −80 mV) | other results
1 |  |  |  | CC12CC3CC(C)(C1)CC(N)(C3)C2 [memantine] |  |  |  |  |  |  |  |  |  |  |  |  |  |  |  |  |  | IC50 [1]: 6.4 ± 0.5 µM
2 |  |  |  | CC(C(O)c1ccc(O)cc1)N1CCC(Cc2ccccc2)CC1 (stereo not drawn) [ifenprodil] | does not affect | 28000 |  |  |  |  |  |  |  |  |  |  |  |  |  |  |  | washout τ, compound alone (representative recording) [2, 4]: 28000 ms
3 |  |  |  | [Mg+2] [magnesium] |  |  | 30 |  |  |  |  |  |  |  |  |  |  |  |  |  |  | washout time constant τ, compound alone ([2]; −80 mV, mean ± SD): 30 ± 16 ms
4 | 17 ± 3 | 13 ± 3 | 9 ± 2.2 | [H]/N=C(\N/C(=N/[H])Nc1ccc(Cl)cc1)NC(C)C [Proguanil, proguanil] | significantly faster | 75 | 550 | allosteric inhibitors | significant inhibition | more active in conditions of higher agonist concentration | > 500 | 14 ± 1 | 0.7 * | mostly voltage-independently with a small voltage-dependent component | not competitive | 51 ± 6 (n = 5) % | not affected | did not demonstrate overshoots | < 5 | 1.1 ± 0.2 | tail current absence | activity lower than that of memantine (fold) ([2]; −30 mV, 1 mM Mg2+, compared with memantine IC50 of ref 40): approximately three-fold; washout time constant τ, mixture with Mg2+ ([2]; −80 mV, mean ± SD, proguanil 30 µM + 10 mM Mg2+): 76 ± 32 ms; washout time constant τ, compound alone ([2]; −80 mV, mean ± SD): 470 ± 120 ms
5 | 34 ± 10 | 20 ± 5 | 3.4 ± 0.6 | CC1(C)N=C(N)N=C(N)N1c1ccc(Cl)cc1 [Cycloguanil, cycloguanil] | significantly faster | 60 |  | voltage-dependent trapping channel blocker | significant inhibition | agonist-independent | 55 ± 11 | > 500 | 0.7 ± 0.1 | clearly voltage-dependent | not competitive | 76 ± 5 (n = 4) % | attenuated | did not demonstrate overshoots | 68 ± 11 | 1.0 ± 0.1 | tail current absence | washout τ, compound alone (representative recording) [2, 4]: 3000 ms
6 |  |  |  | N=C(N)/N=C(\N)N1CCOCC1 [Moroxydine, moroxydine] |  |  |  |  | practically ineffective |  |  |  |  |  |  | 5 ± 4 (n = 4) % |  |  |  |  |  | 
7 |  |  |  | CN(C)C(=N)N=C(N)N [Metformin, metformin] |  |  |  |  | practically ineffective |  |  |  |  |  |  | 6 ± 5 (n = 4) % |  |  |  |  |  | 
8 | 41 ± 6 | 36 ± 5 | 13 ± 1 | [H]/N=C(/N)N/C(=N/[H])NCCc1ccccc1 [Phenformin, phenformin] | significantly faster | 50 | 180 | allosteric inhibitors | significant inhibition | more active in conditions of higher agonist concentration | > 500 | 22 ± 2 | 0.7 * | mostly voltage-independently with a small voltage-dependent component | not competitive | 44 ± 2 (n = 5) % | not affected | did not demonstrate overshoots | < 5 | 1.1 ± 0.1 | tail current absence | effect on NMDA-induced whole-cell current ([3]; 1 µM): did not affect; effect on calcium responses to NMDA [3]: did not alter

From article PMC11434645, “Mechanisms of NMDA Receptor Inhibition by Biguanide Compounds” (Pharmaceuticals, 2024)
